Data from patent publication US20120022054A1, “NOVEL SUBSTITUTED ARYL DERIVATIVES, THEIR PROCESS OF PREPARATION AND THEIR THERAPEUTICAL USES AS ANTI-HIV AGENTS” (priority 2008, published 2012).
Like-named read-outs stand apart in the source and are kept apart here.

What was measured:
[1] = tested on: NL4-3 strain of HIV-1; assay: Multiple cycle infection assay of CAp24 antigen production; type: cell-based; conditions: Human immunodeficiency virus 1, NL43, SUP-T1, 96 h, read-out: EC50 for antiviral activity (50% inhibition of CA p24 production)
[2] = tested on: Env-deleted NL4-3 vector virus pseudotyped with the VSV g envelope; assay: microbe, parasite or virus in culture; type: cell-based, HIV-1; conditions: Vesicular stomatitis virus, NL43, SUP-T1, 48 h, read-out: EC50 for antiviral activity (50% inhibition of luciferase activity)
[3] = multiple cycle infection with NL4-3 virus, SupT1, MT4 or PBMC, MOI 0.01, day 4 and day −6 post-infection, threshold below 5 μM

Compound	EC50 [1, 3]	EC50 [2]	EC50 [1]
CN(Cc1ccccc1Cl)C(=O)CCCSc1ccc(O)cc1 [Example 3, N-(2-Chlorobenzyl)-4-[(4-hydroxyphenyl)thio]-N-methylbutanamide]	< 5 µM	< 5 µM	–
CN(Cc1ccccc1N1CCN(CCO)CC1)C(=O)CCCSc1ccc(O)cc1 [Example 73, N-{2-[4-(2-hydroxyethyl)piperazin-1-yl]benzyl}-4-[(4-hydroxyphenyl)thio]-N-methylbutanamide]	< 5 µM	< 5 µM	–
COc1ccc(SCCCC(=O)N(C)Cc2cc(C)ccc2N2CCOCC2)cc1 [Example 124, 4-[(4-methoxyphenyl)thio]-N-[5-methyl-2-(morpholin-4-yl)benzyl]-N-methylbutanamide]	< 5 µM	< 5 µM	–
CN(Cc1c(F)cccc1Cl)C(=O)CCCSc1ccc(O)cc1 [Example 31, N-(2-chloro-6-fluorobenzyl)-4-[(4-hydroxyphenyl)thio]-N-methylbutanamide]	< 5 µM	< 5 µM	–
CC(C)Oc1ccccc1CN(C)C(=O)CCCSc1ccc(O)cc1 [Example 41, 4-[(4-Hydroxyphenyl)thio]-N-(2-isopropoxybenzyl)-N-methylbutanamide]	< 5 µM	< 5 µM	–
CN(Cc1ccccc1-c1ccco1)C(=O)CCCn1ccc2cc(F)ccc21 [Example 122, 4-(5-fluoro-1H-indol-1-yl)-N-(2-(furan-2-yl)benzyl)-N-methylbutanamide]	< 5 µM	< 5 µM	–
CCOC(=O)N1CCN(c2ccccc2CN(C)C(=O)CCCSc2ccc(O)cc2)CC1 [Example 47, Ethyl 4-[2-({4-[(4-hydroxyphenyl)thio]butanoyl}methylamino)methylphenyl]-piperazine-1-carboxylate]	< 5 µM	< 5 µM	–
COc1ccc2c(ccn2CCCC(=O)N(C)Cc2cc(F)ccc2OC)c1 [Example 109, N-(5-fluoro-2-methoxybenzyl)-4-(5-methoxy-1H-indol-1-yl)-N-methylbutanamide]	< 5 µM	< 5 µM	–
COc1ccccc1CN(C)C(=O)CCCSc1ccc(NC(C)=O)cc1 [Example 20, 4-{[4-(Acetylamino)phenyl]thio}-N-(2-methoxybenzyl)-N-methylbutanamide]	< 5 µM	< 5 µM	–
COc1c(C)cccc1CN(C)C(=O)CCCSc1ccc(O)cc1 [Example 69, 4-[(4-Hydroxyphenyl)thio]-N-(2-methoxy-3-methylbenzyl)-N-methylbutanamide]	< 5 µM	< 5 µM	–
COc1ccc(-n2cccn2)c(CN(C)C(=O)CCCSc2ccc(F)cc2)c1 [Example 98, 4-[(4-fluorophenyl)thio]-N-[5-methoxy-2-(pyrazol-1-yl)benzyl]-N-methylbutanamide]	< 5 µM	< 5 µM	–
CN(Cc1ccccc1C(F)(F)F)C(=O)CCCSc1ccc(O)cc1 [Example 15, 4-[(4-Hydroxyphenyl)thio]-N-methyl-N-[2-(trifluoromethyl)benzyl]butanamide]	< 5 µM	< 5 µM	–
CCOc1ccccc1CN(C)C(=O)CCCSc1ccc(O)cc1 [Example 30, N-(2-ethoxybenzyl)-4-[(4-hydroxyphenyl)thio]-N-methylbutanamide]	< 5 µM	< 5 µM	–
COCc1ccccc1CN(C)C(=O)CCCSc1ccc(O)cc1 [Example 65, 4-[(4-Hydroxyphenyl)thio]-N-[2-(methoxymethyl)benzyl]-N-methylbutanamide]	< 5 µM	< 5 µM	–
COc1ccccc1CN(C)C(=S)CCCSc1ccc(O)cc1 [Example 164, 4-[(4-Hydroxyphenyl)thio]-N-(2-methoxybenzyl)-N-methylbutanethioamide]	< 5 µM	< 5 µM	–
CN(C(=O)CCCSc1ccc(O)cc1)C(c1ccccc1)c1ccccc1 [Example 10, N-Benzhydryl-4-[(4-hydroxyphenyl)thio]-N-methylbutanamide]	< 5 µM	< 5 µM	–
CN(Cc1ccccc1C1=CCNCC1)C(=O)CCCSc1ccc(O)cc1 [Example 168, 4-[(4-Hydroxyphenyl)thio]-N-methyl-N-[2-(1,2,3,6-tetrahydropyridin-4-yl)benzyl]butanamide]	–	< 5 µM	< 5 µM
Cc1ccccc1CN(C)C(=O)CCCSc1ccc(O)cc1 [Example 37, 4-[(4-Hydroxyphenyl)thio]-N-methyl-N-(2-methylbenzyl)butanamide]	< 5 µM	< 5 µM	–
COc1ccc(C)cc1CN(C)C(=O)CCCn1ccc2ccc(F)cc21 [Example 121, 4-(6-fluoro-1H-indol-1-yl)-N-(2-methoxy-5-methylbenzyl)-N-methylbutanamide]	< 5 µM	< 5 µM	–
COc1ccc(SCCCC(=O)N(C)Cc2cc(F)ccc2OC(C)C)cc1 [Example 117, N-(5-fluoro-2-isopropoxybenzyl)-4-[(4-methoxyphenyl)thio]-N-methylbutanamide]	< 5 µM	< 5 µM	–
CN1CCN(c2ccccc2CN(C)C(=O)CCCSc2ccc(O)cc2)CC1 [Example 13, 4-[(4-Hydroxyphenyl)thio]-N-methyl-N-[2-(4-methylpiperazin-1-yl)benzyl]-butanamide]	< 5 µM	< 5 µM	–
COC(=O)c1ccc(SCCCC(=O)N(C)Cc2cc(F)ccc2OC)cc1 [Example 147, Methyl 4-({4-[(5-fluoro-2-methoxybenzyl)methylamino]-4-oxobutyl}thio)benzoate]	< 5 µM	< 5 µM	–
COc1ccc(F)cc1CN(C)C(=O)CCCSc1ccc(Cl)cc1 [Example 112, 4-[(4-chlorophenyl)thio]-N-(5-fluoro-2-methoxybenzyl)-N-methylbutanamide]	< 5 µM	< 5 µM	–
COc1ccc(SCCCC(=O)N(C)Cc2cc(Cl)ccc2OC)cc1 [Example 115, N-(5-chloro-2-methoxybenzyl)-4-[(4-methoxyphenyl)thio]-N-methylbutanamide]	< 5 µM	< 5 µM	–
CN(Cc1ccccc1-c1ccco1)C(=O)CCCSc1ccc(F)cc1 [Example 95, 4-[(4-fluorophenyl)thio]-N-[2-(2-furyl)benzyl]-N-methylbutanamide]	< 5 µM	< 5 µM	–
COc1ccccc1CN(C)C(=O)CCCC(=O)c1ccc(F)cc1 [Example 56, 5-(4-Fluorophenyl)-N-(2-methoxybenzyl)-N-methyl-5-oxopentanamide]	< 5 µM	< 5 µM	–
COc1ccccc1CN(C)C(=O)CCCSc1ccc(F)c(Cl)c1 [Example 141, 4-[(3-Chloro-4-fluorophenyl)thio]-N-(2-methoxybenzyl)-N-methylbutanamide]	< 5 µM	< 5 µM	–
CN(Cc1ccccc1N1CCN(CCN2CCOCC2)CC1)C(=O)CCCSc1ccc(O)cc1 [Example 53, 4-[(4-Hydroxyphenyl)thio]-N-methyl-N-{2-[4-(2-morpholin-4-ylethyl)piperazin-1-yl]benzyl}butanamide]	< 5 µM	< 5 µM	–
COc1ccccc1CN(C)C(=O)CCCSc1ccc2ccccc2c1 [Example 17, N-(2-Methoxybenzyl)-N-methyl-4-(2-naphthylthio)butanamide]	< 5 µM	< 5 µM	–
COc1ccc(SCCCC(=O)N(C)Cc2cc(F)ccc2OC)cc1 [Example 87, N-(5-Fluoro-2-methoxybenzyl)-4-[(4-methoxyphenyl)thio]-N-methylbutanamide]	< 5 µM	< 5 µM	–
